Test systems include A498 renal; HOP-92 NSCLC; HT29 colon; IGROV1 ovarian; MDA-MB-435; NCI-H460 lung; RPMI-8226 leukemia; SK-MEL-2 melanoma.
Experiment in all cases: NCI tumour cell line growth inhibition, 48 h

Several values for one entry are separate records, joined by “and”; a condition that tells them apart may be missing. Equal values may be shown once.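 Briefly, cells in 96-well plates were exposed to five compound concentrations for 48 h, and endpoints were estimated by linear interpolation. At the GI50, growth is halved. The concentration for full growth arrest is given as TGI.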

Regarding `O=C(N/N=C/c1cc2ccccc2c2ccccc12)c1cc(O)c(O)c(O)c1`, the GI50 with A498 renal is 13.3 µM; in the assay with HOP-92 NSCLC it was 2.1 µM; in the assay on HT29 colon, 9.95 µM; with IGROV1 ovarian, 4.14 µM; with MDA-MB-435, 3.58 µM; with NCI-H460 lung, 3.8 µM. In addition, the GI50 in the assay on RPMI-8226 leukemia was 7.47 µM; in the assay on SK-MEL-2 melanoma, 4.25 µM. Also, the TGI with A498 renal was found to be 27 µM; in the assay on HOP-92 NSCLC, 7.19 µM; in the assay with HT29 colon, 31 µM; in the assay on IGROV1 ovarian, 20.5 µM; in the assay with MDA-MB-435, 16.9 µM; in the assay with NCI-H460 lung, 18 µM. The TGI in the assay with RPMI-8226 leukemia came to 46.1 µM; in the assay on SK-MEL-2 melanoma, 15.9 µM.
Take `CC1=COC2=C(C)C(=O)C(=O)c3c(C)ccc1c32`: the TGI with A498 renal was 41.8 µM; with HOP-92 NSCLC, 39.9 µM; with HT29 colon, 12.8 µM; in the assay with IGROV1 ovarian, 21.6 µM; in the assay with MDA-MB-435, 3.86 µM; in the assay on NCI-H460 lung, 15.4 µM. In addition, the TGI with RPMI-8226 leukemia is 97.2 µM; with SK-MEL-2 melanoma, > 40.1 µM.
In the case of `COc1cc(/C=C2\C(=O)N(c3c(Cl)cccc3Cl)c3ccccc32)cc(OC)c1O`, the GI50 in the assay on A498 renal is 5.59 µM; in the assay with HOP-92 NSCLC it was 1.97 µM; in the assay on HT29 colon, 2.17 µM; with IGROV1 ovarian it was 1.01 µM; in the assay with MDA-MB-435, 0.626 µM; with NCI-H460 lung it was 0.342 µM. Moreover, the GI50 in the assay with RPMI-8226 leukemia is 0.718 µM; with SK-MEL-2 melanoma, 1.23 µM. For the same molecule, the TGI with A498 renal was determined as 16.1 µM; in the assay on HOP-92 NSCLC it was 11 µM; with HT29 colon, 8.62 µM; with IGROV1 ovarian, 15 µM; in the assay on MDA-MB-435 it was 15.4 µM; in the assay with NCI-H460 lung, 4.58 µM. The TGI was found to be 11.7 µM with RPMI-8226 leukemia and 15.4 µM in the assay with SK-MEL-2 melanoma.
Regarding `C#C[C@]1(O)CC[C@H]2[C@@H]3CC=C4c5nc(Nc6ccc(OC)cc6OC)sc5CC[C@]4(C)[C@H]3CC[C@@]21C`, the GI50 with A498 renal was 0.152 µM; with HOP-92 NSCLC, 2.1 µM; in the assay with HT29 colon, 1.29 µM; in the assay on IGROV1 ovarian it was 1.99 µM; with MDA-MB-435 it was 1.76 µM; with NCI-H460 lung, 2.65 µM. For the same molecule, the GI50 in the assay with RPMI-8226 leukemia was 0.248 µM; in the assay on SK-MEL-2 melanoma, 1.23 µM. The TGI with A498 renal was determined as 1.23 µM; in the assay with HOP-92 NSCLC, 7 µM; with HT29 colon, 6.4 µM; in the assay on IGROV1 ovarian, 7.11 µM; in the assay on MDA-MB-435, 4.39 µM; in the assay with NCI-H460 lung, 10.3 µM. Moreover, the figures for the TGI in the assay with RPMI-8226 leukemia and with SK-MEL-2 melanoma were 0.804 µM and 6.39 µM, respectively.
On to `NC(=O)c1c(OCc2c(F)cc(Br)cc2F)nsc1NC(=O)NCCCCN1CCCC1`, for which the GI50 in the assay on A498 renal is 0.086 µM; with HOP-92 NSCLC, 0.323 µM; in the assay on HT29 colon it was 1.46 µM; in the assay on IGROV1 ovarian, 0.327 µM; in the assay on MDA-MB-435, 2.26 µM; in the assay with NCI-H460 lung, 2.6 µM. Further, the GI50 with RPMI-8226 leukemia was 2.4 µM; in the assay on SK-MEL-2 melanoma, > 10 µM. For the same molecule, the TGI was 0.91 µM in the assay with A498 renal; > 10 µM in the assay on HOP-92 NSCLC; 6.77 µM in the assay on HT29 colon; 4.29 µM with IGROV1 ovarian; 6.75 µM in the assay with MDA-MB-435; > 10 µM in the assay with NCI-H460 lung. Also, the TGI in the assay on RPMI-8226 leukemia was 6 µM; with SK-MEL-2 melanoma it was > 10 µM.
As to `NC(N)=NC(N)=NCCc1ccccc1`, the TGI with A498 renal, in the assay on HOP-92 NSCLC, in the assay with HT29 colon, with IGROV1 ovarian, with MDA-MB-435 and in the assay on NCI-H460 lung was > 100 µM each time. Further, the TGI in the assay with RPMI-8226 leukemia and in the assay on SK-MEL-2 melanoma was > 100 µM each time. In addition, the GI50 with HOP-92 NSCLC was 1.51 µM; in the assay with HT29 colon it was > 100 µM; in the assay on IGROV1 ovarian, > 100 µM; in the assay on MDA-MB-435, > 100 µM; in the assay with NCI-H460 lung it was > 100 µM; in the assay with RPMI-8226 leukemia it was 11.1 µM and 7.54 µM. In the assay on SK-MEL-2 melanoma, the GI50 was > 100 µM.
Regarding `Cc1ccc(NC2=C(Cl)C(=O)c3nc(C)ccc3C2=O)cc1`, the GI50 is 0.0538 µM in the assay on A498 renal; 1.4 µM with HOP-92 NSCLC; 2.79 µM in the assay on HT29 colon; 1.54 µM in the assay with IGROV1 ovarian; 1.48 µM with MDA-MB-435; 1.69 µM in the assay on NCI-H460 lung. Further, the figures for the GI50 in the assay on RPMI-8226 leukemia and in the assay on SK-MEL-2 melanoma were 1.41 µM and 1.82 µM, respectively. Also, the TGI in the assay on A498 renal was 3.81 µM; in the assay with HOP-92 NSCLC, 2.93 µM; in the assay on HT29 colon, 8.46 µM; in the assay on IGROV1 ovarian it was 3.35 µM; in the assay with MDA-MB-435 it was 2.88 µM; in the assay on NCI-H460 lung it was 4.57 µM. Further, the TGI in the assay with RPMI-8226 leukemia is 4.2 µM; with SK-MEL-2 melanoma, 3.79 µM.

The values above are taken from PubChem BioAssay (NCI).
